The test system of data set [1] is Oct4, Sox2 and Nanog expression in embryoid-like cell bodies of CD34+ mouse fibroblasts. In words: qPCR of pluripotent gene expression in embryoid-like bodies of mouse tail fibroblasts. The data set is classed as cell-based. The settings on record: for Oct4, Sox2 and Nanog expression (qPCR, FIG. 5): embryoid-like cell bodies of CD34+ mouse fibroblasts; for Oct4, Sox2 and Nanog expression (qPCR, FIG. 5) / Oct4, Sox2 and Nanog expression (qPCR, FIG. 4): vs untreated bodies and monolayer; for Oct4, Sox2 and Nanog expression (qPCR, FIG. 4): embryoid-like cell bodies treated with 5 μm. The procedure: Materials required: Culture medium, supplemented with 10% FBS, 1% PS in DMEM (Invitrogen); Mouse ESC medium, supplemented with 1×B27 (Invitrogen), 1,000 U/mL Mouse Leukemia Inhibitory Factor (LIF) in DMEM/F12 culture medium (Invitrogen); Programin (frozen stock dissolved in DMSO); Working concentration=1-5 μM; Sterile 35 mm non-adhesive culture dish (SPL; 11035).
1. Source mouse tail fibroblasts (passage 2-6 and in log phase of growth). Trypsinize the fibroblasts using standard protocols to obtain a suspension of the cells in culture medium.
2. Seed the fibroblasts or other somatic cells onto a sterile 35 mm non-adhesive culture dish at density of 1×10^5-1×10^6 cells/cm^2 in 3 mL of culture medium.
4. Gently pipette the culture media to prevent the cells from adhering to culture dish surface. Two sessions per day, 2 min for each session, must be performed. A standard 1 mL pipette and plastic tip was used for pipetting the cultures. The pipetting has to done very slowly (approximately 0.5-1 mL/second generates sufficient force to detach cells from non-adhesive culture dish surface).
1. The cells would start to aggregate into embryoid-like bodies after day 1. These bodies will grow in numbers and size during the period of culture.
2. Gently pipette the culture media to prevent the embryoid-like cell bodies from attaching on culture dish surface.
3. Add 1 mL of fresh culture medium.
1. Collect cell suspension and pellet cells by centrifugation at 800 rpm for 5 min. […] Wash cell once with mouse ESC medium and Programin (1-5 μM) or programin derivatives.
2. Pellet the embryoid-like bodies again and re-suspend them in 3 mL mouse ESC medium and Programin or derivatives thereof.
3. Seed the embryoid-like cell bodies onto a sterile 35 mm non-adhesive culture dish.
4. Perform daily pipetting twice in a day to prevent the embryoid-like cell bodies from sticking to the culture dish.
5. Add 1 mL of fresh mouse ESC medium on day 5 (day 2 post-Programin treatment).
2. Harvest the embryoid-like cell bodies for qPCR analysis to validate expression of pluripotent genes: Oct4, Sox2 and Nanog expression. In addition, expression of other key stem cell-associated genes.
(In general: In qPCR the cycle at which signal appears reflects the starting amount.)

Data set [2] concerns Oct4-EGFP expression in CD34+ fibroblasts from the tail of an Oct4-EGFP transgenic mouse. The settings on record: embryoid-like cell bodies, 5 μM, 24, 48 and 69 hours. From the text: 1. Harvest the embryoid-like cell bodies for PI and Hoechst staining for confocal analysis. The presence of green fluorescence and Hoechst staining in cells indicate the presence of live PIP cells expressing Oct4-EGFP.
CD34^+ fibroblasts harvested from the tail of an Oct4-EGFP transgenic mouse were mechanically pipetted and maintained on non-adhesive culture plates so that the cells became aggregated to form embryoid-like bodies (FIG. 3A). The embryoid-like bodies in this study were stained with PI dye to determine the presence of dead cells (red arrows) and Hoechst dye for the presence of live cells (blue arrows) (FIGS. 3A-3D).

Data set [3] has as its system Programin-treated embryoid-like cell bodies. On the procedure: Programin-treated embryoid-like cell bodies (1×10^6 cells/10 cm^2) were maintained as a suspension culture in DMEM/F12, 1000 U/mL LIF and 1×B27 on non-adhesive culture dishes for 4 days. The embryoid-like cell bodies were then transferred to culture dishes coated with 0.1% gelatin (FIG. 9A). 10 μM Wnt agonist (Cat #681665, Calbiochem) was added to the culture medium (DMEM/F12, 1000U/mL LIF and 1×B27).

Data set [4] deals with Programin treated embryoid-like cell bodies. The settings on record: treated embryoid-like bodies on 0.1% gelatin, B27 medium, after 3 days, more obvious after 7 days. The source says:
Programin treated embryoid-like cell bodies (1×10^6 cells/10 cm^2) were maintained as a suspension culture in DMEM/F12, 1000U/mL LIF and 1×B27 on non-adhesive culture dishes for 4 days. The embryoid-like cell bodies were then transferred to culture dishes coated with 0.1% gelatin (FIG. 10A).

Data set [5] relates to CD34+ fibroblasts grown on adhesive culture dishes. The settings on record: 5 μM for 3 days.
From the text: Tail fibroblasts extracted from the tail of Oct4-EGFP transgenic mice and stained with CD34 (FIG. 2). The cells were sorted by flow cytometry for only those expressing the surface marker CD34.
Data set [6] concerns Oct4, Sox2, KLF4, c-Myc and Nanog expression in HUCPV cells. The settings on record: HUCPV embryoid-like bodies.
Method: Materials required: HUCPV medium, consisting of 15% ESQ-FBS (Invitrogen) and 1% PS in MEM/F12 (Invitrogen), Essential 6 (Invitrogen) supplemented with 100 ng/mL basic fibroblast growth factor (bFGF) (Invitrogen), Programin or derivatives thereof (frozen stock dissolved in DMSO); Working concentration=1-5 μM; Sterile non-adhesive 24-well culture plate (SPL; 32024).
Primary human umbilical cord peri-vascular (HUCPV) cells were maintained in HUCPV culture medium and passaged by trypsinization. Only HUCPV cells below cell passage 6 were used.
HUCPV cultures are trypsinize and dissociate into single cells.
The dissociated HUCPV cells are re-suspend as 3×10^5 cells in 600 μL of HUCPV medium and seeded into each well of a non-adhesive 24-well culture plate.
The cells are incubated at 37° C. and 5% CO2 inside a cell incubator.
On following day, until the end of experiment, the cells were pipetted twice a day to prevent cells attaching onto culture plates which caused the HUCPV cells to aggregate into embryoid-like cell bodies.
200 μL of fresh HUCPV medium were added to the cultures, every 2 days. […]
Thirty hours after Programin treatment, the Programin treated embryoid-like cell bodies were harvested for qPCR analysis to validate expression of the pluripotent genes: Oct4, Sox2 and Nanog. Other key stem cells-associate genes were also analyzed.
For data set [7] the test system is unchanged. The settings on record: HUCPV cells as a monolayer, 0-5 μM for 30 hours.
In data set [8] the test system is Oct4, Nanog, Sox2, c-Myc and KLF4 expression in human skin fibroblasts. The settings on record: 5 μM, 4 days.
Method: Materials required: Fibroblast medium, supplemented with 15% FBS, 1% non-essential amino acids, 1% PS in Eagle's MEM medium (Invitrogen), human ESC medium, supplemented with 20% knockout serum replacement (Invitrogen), 2 mM L-glutamine, 0.1 mM non-essential amino acids, 0.1 mM mercaptoethanol, 10 ng/mL fibroblast growth factor-basic (bFGF), 1% PS in DMEM/F12 (Invitrogen), Programin or derivatives thereof (frozen stock dissolved in DMSO); Working concentration=5 μM, and sterile 35 mm non-adhesive culture dish (SPL; 11035).
Primary human skin fibroblasts were cultured in fibroblast medium and passaged by trypsinization. Passage 5 fibroblasts were used for experimentation.
After dissociating the cultures into single cells with trypsin, 2×10^6 cells were resuspended in 3 mL fibroblast medium in non-adhesive 35 mm dish and maintained in 37° C. incubator with 5% CO2.
Several hours later, aggregates were formed. Gently breakup excessively large aggregates by pipetting.
The next day, compact aggregates were formed. Again gentry breakup aggregates into smaller size (100-120 μm diameter) by pipetting.
Three days after cell aggregate/embryoid-like cell body formation, change the medium to human ESC medium supplemented with 5 μM Programin or derivatives thereof.
Replenish medium with fresh Programin or derivatives thereof 2 days after. […]

Molecules are shown by their SMILES. Several values for one entry are separate records, joined by “and”; a condition that tells them apart may be missing. Identical values can stand only once. Like-named read-outs stand apart in the source and are kept apart here.

As for `Oc1ncnc2[nH]ncc12` [Derivative 237], the “Oct4, Sox2 and Nanog expression (qPCR, FIG. 5)” value (shortened to “Oct4 … (qPCR, FIG. 5)”) in data set [1] was “significantly increased”.
On to `c1nc2nc(Nc3ccc(N4CCOCC4)cc3)nc(NC3CCCCC3)c2[nH]1` [programin, 2-(4-Morpholinoanilino)-6-cyclohexylamino-purine], for which the “increase in Oct4, Sox2 and Nanog expression” value in data set [1] (aggregates/embryoid-like bodies of fibroblasts, compared to controls (unaggregated, untreated cells)) was 25-200 fold and 20-200 fold; in data set [1] (embryoid-like cell bodies exposed to 2-5 μM for 30 hours, compared to an untreated control fibroblast), 25-200 fold. The “increase in expression of E-cadherin” value in data set [1] (compared to that of the initial fibroblast) was found to be 5 fold. The “Oct4 … (qPCR, FIG. 5)” value in data set [1] is reported as “higher”. The “Oct4, Sox2 and Nanog expression (qPCR, FIG. 4)” value is recorded as “highest” in data set [1] and “significantly enhanced” in data set [1] (listed as Programin). In addition, the reprogramming efficiency result in data set [1] (mouse somatic cells, takes 7 days to accomplish) is reported as “approximately 20%”. The figures for the “Oct4-EGFP expression (confocal microscope)” value in data set [2] and in data set [2] (listed as Programin) were “detectable” and “expressed Oct4-EGFP”, respectively. Further, the “fate of treated cells that were not aggregated” value in data set [3] (following exposure to the Wnt agonist) is on record as “underwent cell death”. Besides, the “formation of bone-like nodules” value in data set [3] (treated embryoid-like bodies on 0.1% gelatin with 10 μM Wnt agonist, after 2-3 days) is on record as “Bone-like nodules were evident”. Further, the “Alizen Red s staining of the nodules” value in data set [3] (treated embryoid-like bodies with 10 μM Wnt agonist) is “osteocytes”. Also, the formation of neurons entry in data set [4] was “Neurons were evident”. In data set [5], the Oct4 expression entry is on record as “did not express Oct4”. In addition, the cell survival entry in data set [5] is listed as “died”. Besides, the “Oct4, Sox2, KLF4, c-Myc and Nanog expression (qPCR)” value in data set [6] (1-5 μM for 30 hours, vs untreated embryoid-like body controls (0 μM)) is on record as “significantly enhanced”; in data set [7], “did not activate”. Also, the “concentration that induced the highest level of Oct4, Sox2, Klf4 and Nanog” value in data set [6] (30 hours, 1-5 μM tested) came out at 4 µM. For the same compound, the “expression of Oct4, Nanog, Sox2, c-Myc and KLF4 (qPCR)” value in data set [8] (human skin fibroblast embryoid-like bodies, vs vehicle and monolayer) is “higher levels”. The “expression of pluripotency-associated genes Oct4, Sox2, Nanog, KLF4 and c-Myc” value in data set [8] (human skin fibroblasts in a monolayer) is recorded as “not in a monolayer”.
Consider `Clc1nc(N2CCN(c3ccccc3)CC2)c2[nH]cnc2n1` [Derivative 957], for which the “Oct4 … (qPCR, FIG. 5)” value in data set [1] is given as “significantly increased”.
Still for that read-out and setting: for `Nc1ncnc2nc[nH]c12` [Derivative 668] the value was “significantly increased”.
In the case of `Cc1cc(C)n(-c2nc(Cl)nc3[nH]cnc23)n1` [Derivative 959], in data set [1], the “Oct4 … (qPCR, FIG. 5)” value is “significantly increased”.
Still for that read-out and setting: as for `S=c1[nH]cnc2nc[nH]c12` [Derivative 594], the entry is “significantly increased”; as for `Clc1nc(-n2cccn2)c2nc[nH]c2n1` [Derivative 958], “significantly increased”; as for `Nc1nc2nc[nH]c2c(=S)[nH]1` [Derivative 400], “significantly increased”.

Source of the values: patent US10676720B2, “Combinational use of mechanical manipulation and programin derivatives to increase Oct4, Sox2, Nanog or c-Myc expression in fibroblasts” (The Chinese University of Hong Kong, priority 2014, dated 2020).
